Assay results from PMC6148246, “HS-1371, a novel kinase inhibitor of RIP3-mediated necroptosis” (Experimental & Molecular Medicine, 2018).

Test system: mouse embryonic fibroblast (MEF) cells
Test: TCZ-induced necroptosis in MEF cells
Format: cell-based
Details: TNF plus cycloheximide and zVAD (TCZ)
Protocol: Cells were pretreated with DAB or HS-1371 for 2 h and then treated with TSZ (6 h for immunoblotting, 24 h for cell death assay). Cell lysates were analyzed by immunoblotting (left bottom panel), and cell viability was analyzed by MTT assay (right panel). The results are presented as means ± SEM. *P < 0.05, **P < 0.01, ***P < 0.001. c, d HS-1371 had the same effect on mouse cells. L929 (mouse sarcoma, c) and MEF (mouse embryonic fibroblast, d) cells were pretreated with inhibitors and then necroptosis was induced by TNF. Cell lysates were analyzed by immunoblotting (upper panel), and cell viability was analyzed by MTT assay (bottom panel). The results are presented as means ± SEM. *P < 0.05, **P < 0.01, ***P < 0.001

Compound: Cc1ccc(Oc2ccnc3cc(-c4cnn(C5CCNCC5)c4)ccc23)cc1 [HS-1371, 7-(1-(Piperidin-4-yl)-1H-pyrazol-4-yl)-4-(p-tolyloxy)quinoline]
- MLKL phosphorylation and cell death: effectively prevented
